Consider 12 compounds from patent US12521393B2, “Cytotoxicity targeting chimeras for CCR2-expressing cells” (GLAXOSMITHKLINE INTELLECTUAL PROPERTY DEVELOPMENT LIMITED, priority 2021, dated 2026).

Structures are written as SMILES.

The term IC50 denotes the concentration at which inhibition is half-maximal. Read a high IC50 as a need for much substance.

In test [1] the target is human alpha1 nicotinic acetylcholine (nACh) receptor (Homo sapiens, UniProt P02708). The test can be described thus: Nicotinic acetylcholine receptor antagonism assay, IONFlux automated patch clamp (Example 203). The test is classed as cell-based. Particulars: for IC50: antagonism of ACh-stimulated human alpha1 nAChR current, patch clamp; for Emax at 100 µM: maximum percentage antagonism at maximum concentration tested 100 μM; for Emax at 100 µM / Emax at 10 µM: read-out: Maximum Response; for Emax at 10 µM: maximum percentage antagonism at maximum concentration tested 10 μM. The essentials: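 Cells expressing human α1 nAChR were incubated with a compound dose response (top 10 μM or 100 μM), then stimulated with ACh (10 mM), and peak current was read by automated patch clamp. % inhibition was taken against ACh-alone control, corrected for vehicle and run-down, and fit non-linearly for IC50; runs were averaged.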
A general note: In patch-clamp work, channel activity is measured electrically.

The target of test [2] is anti-cotinine antibody (SEQ ID NO: 11/12, rabbit variable region with human IgG1 Fc DE mutation). The test can be described thus: SPR binding of anti-cotinine antibody to ARM compounds, Biacore T200, 37° C. (Example 202). Conditions: SPR Biacore T200, 37° C., pH 7.4, antibody SEQ ID NO: 11/12 captured on protein A; Kd in molar. The procedure, abridged: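 Run at 37 °C in 10 mM HEPES pH 7.4, 150 mM NaCl, 0.005% P20, 1% DMSO, with compounds titrated from 200 nM (five 3-fold steps) over protein A–captured antibody. A 1:1 kinetic model on double-referenced data gave rate constants, Kd as koff/kon and residence time 1/koff; results as pKd, run-averaged.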

human alpha1 nicotinic acetylcholine (nACh) receptor, sequence (P02708 21-457): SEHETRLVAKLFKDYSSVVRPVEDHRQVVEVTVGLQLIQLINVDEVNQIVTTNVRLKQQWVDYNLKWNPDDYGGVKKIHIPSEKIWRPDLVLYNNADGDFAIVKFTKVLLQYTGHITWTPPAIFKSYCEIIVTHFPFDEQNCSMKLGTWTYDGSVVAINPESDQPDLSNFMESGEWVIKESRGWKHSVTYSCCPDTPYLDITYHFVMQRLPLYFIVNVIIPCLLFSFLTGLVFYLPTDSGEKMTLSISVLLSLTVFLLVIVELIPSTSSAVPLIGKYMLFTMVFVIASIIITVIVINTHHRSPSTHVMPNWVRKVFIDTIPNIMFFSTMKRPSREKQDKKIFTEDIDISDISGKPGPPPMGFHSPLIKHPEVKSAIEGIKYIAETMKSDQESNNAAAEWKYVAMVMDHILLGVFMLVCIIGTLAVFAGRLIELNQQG
human alpha1 nicotinic acetylcholine (nACh) receptor, sequence (P11230 24-501 partner): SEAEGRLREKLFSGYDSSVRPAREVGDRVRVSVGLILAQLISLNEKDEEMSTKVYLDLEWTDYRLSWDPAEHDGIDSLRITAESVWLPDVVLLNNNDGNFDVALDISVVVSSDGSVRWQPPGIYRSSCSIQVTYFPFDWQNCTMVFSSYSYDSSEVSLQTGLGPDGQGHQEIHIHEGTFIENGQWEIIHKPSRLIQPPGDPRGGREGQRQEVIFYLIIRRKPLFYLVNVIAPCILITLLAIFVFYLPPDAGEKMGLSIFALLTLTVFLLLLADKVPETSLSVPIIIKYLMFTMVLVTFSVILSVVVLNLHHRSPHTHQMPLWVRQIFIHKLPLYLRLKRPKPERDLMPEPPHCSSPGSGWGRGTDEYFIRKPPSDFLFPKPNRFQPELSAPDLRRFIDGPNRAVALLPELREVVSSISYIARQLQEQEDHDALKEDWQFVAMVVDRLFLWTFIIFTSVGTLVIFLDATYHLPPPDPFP
human alpha1 nicotinic acetylcholine (nACh) receptor, sequence (Q07001 22-517 partner): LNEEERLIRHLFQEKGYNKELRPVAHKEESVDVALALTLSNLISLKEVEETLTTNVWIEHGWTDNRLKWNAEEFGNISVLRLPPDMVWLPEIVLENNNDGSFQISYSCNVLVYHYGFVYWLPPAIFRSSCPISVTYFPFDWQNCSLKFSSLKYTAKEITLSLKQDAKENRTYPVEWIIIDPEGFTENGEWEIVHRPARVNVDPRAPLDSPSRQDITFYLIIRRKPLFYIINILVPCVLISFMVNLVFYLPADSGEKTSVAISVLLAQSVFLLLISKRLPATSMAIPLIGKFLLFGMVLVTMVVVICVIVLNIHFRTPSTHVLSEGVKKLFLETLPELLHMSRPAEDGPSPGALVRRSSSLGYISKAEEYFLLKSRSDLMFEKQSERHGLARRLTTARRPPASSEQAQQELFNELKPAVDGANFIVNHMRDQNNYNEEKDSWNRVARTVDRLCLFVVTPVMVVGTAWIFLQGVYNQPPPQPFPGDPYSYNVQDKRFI

For `CC(C)N(C)[C@@H]1CC[C@H](N2CC[C@H](Nc3ncnc4ccc(C(F)(F)F)cc34)C2=O)[C@H](NC(=O)[C@H]2CC[C@@H](NC(=O)CCOCCOCCNC(=O)CNC(=O)[C@H]3CC(=O)N(C)[C@@H]3c3cccnc3)CC2)C1` [Example 63, (2S,3S)-N-(2-((2-(2-(3-(((1S,4s)-4-(((1R,2S,5R)-5-(Isopropyl(methyl)amino)-2-((S)-2-oxo-3-((6-(trifluoromethyl)quinazolin-4-yl)amino)pyrrolidin-1-yl)cyclohexyl)carbamoyl)cyclohexyl)amino)-3-oxopropoxy)ethoxy)ethyl)amino)-2-oxoethyl)-1-methyl-5-oxo-2-(pyridin-3-yl)pyrrolidine-3-carboxamide], in test [1], inhibition was half-maximal at 38.5 µM (IC50) and the Emax at 100 µM turned out to be 76.6%. Moreover, the “pKd of Antibody for ARM Compound of Formula (I)” value (shortened to “pKd of Antibody”) in test [2] was 8.674.
In the same order, the values of `CC(C)N(C)[C@@H]1CC[C@H](N2CC[C@H](Nc3ncnc4ccc(C(F)(F)F)cc34)C2=O)[C@H](NC(=O)CCOCCOCCNC(=O)CCOCCOCCNC(=O)[C@H]2CC(=O)N(C)[C@@H]2c2cccnc2)C1` [Example 76, (2S,3S)-N-(19-(((1R,2S,5R)-5-(Isopropyl(methyl)amino)-2-((S)-2-oxo-3-((6-(trifluoromethyl)quinazolin-4-yl)amino)pyrrolidin-1-yl)cyclohexyl)amino)-9,19-dioxo-3,6,13,16-tetraoxa-10-azanonadecyl)-1-methyl-5-oxo-2-(pyridin-3-yl)pyrrolidine-3-carboxamide] are 32.4 µM, 67.7% and 9.1155.
The matching figures for `CC(C)N(C)[C@@H]1CC[C@H](N2CC[C@H](Nc3ncnc4ccc(C(F)(F)F)cc34)C2=O)[C@H](NC(=O)[C@H]2CC[C@@H](NC(=O)COCCNC(=O)COCCNC(=O)[C@H]3CC(=O)N(C)[C@@H]3c3cccnc3)CC2)C1` [Example 99, (2S,3S)-N-(2-(2-((2-(2-(((1S,4s)-4-(((1R,2S,5R)-5-(Isopropyl(methyl)amino)-2-((S)-2-oxo-3-((6-(trifluoromethyl)quinazolin-4-yl)amino)pyrrolidin-1-yl)cyclohexyl)carbamoyl)cyclohexyl)amino)-2-oxoethoxy)ethyl)amino)-2-oxoethoxy)ethyl)-1-methyl-5-oxo-2-(pyridin-3-yl)pyrrolidine-3-carboxamide]: 33.1 µM, 71.1% and 9.062.
Turning to `CC(C)N(C)[C@@H]1CC[C@H](N2CC[C@H](Nc3ncnc4ccc(C(F)(F)F)cc34)C2=O)[C@H](NC(=O)CCOCCNC(=O)COCCNC(=O)COCCNC(=O)[C@H]2CC(=O)N(C)[C@@H]2c2cccnc2)C1` [Example 102, (2S,3S)-N-(18-(((1R,2S,5R)-5-(Isopropyl(methyl)amino)-2-((S)-2-oxo-3-((6-(trifluoromethyl)quinazolin-4-yl)amino)pyrrolidin-1-yl)cyclohexyl)amino)-5,11,18-trioxo-3,9,15-trioxa-6,12-diazaoctadecyl)-1-methyl-5-oxo-2-(pyridin-3-yl)pyrrolidine-3-carboxamide], in test [1], the IC50 is 66.1 µM and the Emax at 100 µM is 61.3%. Besides, the “pKd of Antibody” value in test [2] is 9.076.
In the same order, the values of `CC(C)N(C)[C@@H]1CC[C@H](N2CC[C@H](Nc3ncnc4ccc(C(F)(F)F)cc34)C2=O)[C@H](NC(=O)CCOCCNC(=O)CCOCCNC(=O)COCCNC(=O)[C@H]2CC(=O)N(C)[C@@H]2c2cccnc2)C1` [Example 105, (2S,3S)-N-(19-(((1R,2S,5R)-5-(Isopropyl(methyl)amino)-2-((S)-2-oxo-3-((6-(trifluoromethyl)quinazolin-4-yl)amino)pyrrolidin-1-yl)cyclohexyl)amino)-5,12,19-trioxo-3,9,16-trioxa-6,13-diazanonadecyl)-1-methyl-5-oxo-2-(pyridin-3-yl)pyrrolidine-3-carboxamide] are 38.9 µM, 75.7% and 9.0705.
On to `CC(C)N(C)[C@@H]1CC[C@H](N2CC[C@H](Nc3ncnc4ccc(C(F)(F)F)cc34)C2=O)[C@H](NC(=O)CCOCCNC(=O)[C@H]2CC[C@@H](NC(=O)COCCNC(=O)[C@H]3CC(=O)N(C)[C@@H]3c3cccnc3)CC2)C1` [Example 107, (2S,3S)-N-(2-(2-(((1S,4R)-4-((2-(3-(((1R,2S,5R)-5-(Isopropyl(methyl)amino)-2-((S)-2-oxo-3-((6-(trifluoromethyl)quinazolin-4-yl)amino)pyrrolidin-1-yl)cyclohexyl)amino)-3-oxopropoxy)ethyl)carbamoyl)cyclohexyl)amino)-2-oxoethoxy)ethyl)-1-methyl-5-oxo-2-(pyridin-3-yl)pyrrolidine-3-carboxamide], for which, in test [1], the IC50 is at least 10 µM and the Emax at 10 µM was 12.2%. The “pKd of Antibody” value in test [2] is recorded as 9.161.
`CC(C)N(C)[C@@H]1CC[C@H](N2CC[C@H](Nc3ncnc4ccc(C(F)(F)F)cc34)C2=O)[C@H](NC(=O)COCCNC(=O)COCCNC(=O)COCCNC(=O)[C@H]2CC(=O)N(C)[C@@H]2c2cccnc2)C1` [Example 111, (2S,3S)-N-(17-(((1R,2S,5R)-5-(Isopropyl(methyl)amino)-2-((S)-2-oxo-3-((6-(trifluoromethyl)quinazolin-4-yl)amino)pyrrolidin-1-yl)cyclohexyl)amino)-5,11,17-trioxo-3,9,15-trioxa-6,12-diazaheptadecyl)-1-methyl-5-oxo-2-(pyridin-3-yl)pyrrolidine-3-carboxamide]: in test [1], the IC50 is 52.9 µM and the Emax at 100 µM worked out at 67.6%. Also, the “pKd of Antibody” value in test [2] was found to be 9.0855.
The matching figures for `CC(C)N(C)[C@@H]1CC[C@H](N2CC[C@H](Nc3ncnc4ccc(C(F)(F)F)cc34)C2=O)[C@H](NC(=O)CNC(=O)[C@H]2CC[C@@H](NC(=O)CCOCCOCCNC(=O)[C@H]3CC(=O)N(C)[C@@H]3c3cccnc3)CC2)C1` [Example 137, (2S,3S)-N-(2-(2-(3-(((1S,4s)-4-((2-(((1R,2S,5R)-5-(Isopropyl(methyl)amino)-2-((S)-2-oxo-3-((6-(trifluoromethyl)quinazolin-4-yl)amino)pyrrolidin-1-yl)cyclohexyl)amino)-2-oxoethyl)carbamoyl)cyclohexyl)amino)-3-oxopropoxy)ethoxy)ethyl)-1-methyl-5-oxo-2-(pyridin-3-yl)pyrrolidine-3-carboxamide]: 70 µM, 62% and 9.336.
In the same order, the values of `CC(C)N(C)[C@@H]1CC[C@H](N2CC[C@H](Nc3ncnc4ccc(C(F)(F)F)cc34)C2=O)[C@H](NC(=O)[C@H]2CC[C@@H](NC(=O)CCOCCNC(=O)CCNC(=O)CCNC(=O)[C@H]3CC(=O)N(C)[C@@H]3c3cccnc3)CC2)C1` [Example 182, (2S,3S)-N-(3-((3-((2-(3-(((1S,4s)-4-(((1R,2S,5R)-5-(Isopropyl(methyl)amino)-2-((S)-2-oxo-3-((6-(trifluoromethyl)quinazolin-4-yl)amino)pyrrolidin-1-yl)cyclohexyl)carbamoyl)cyclohexyl)amino)-3-oxopropoxy)ethyl)amino)-3-oxopropyl)amino)-3-oxopropyl)-1-methyl-5-oxo-2-(pyridin-3-yl)pyrrolidine-3-carboxamide] are 76.4 µM, 61.9% and 9.117.
In the same order, the values of `CC(C)N(C)[C@@H]1CC[C@H](N2CC[C@H](Nc3ncnc4ccc(C(F)(F)F)cc34)C2=O)[C@H](NC(=O)CCOCCC(=O)N[C@H]2C[C@@H](C(=O)NCCOCCNC(=O)[C@H]3CC(=O)N(C)[C@@H]3c3cccnc3)C2)C1` [Example 186, (2S,3S)-N-(2-(2-((1S,3R)-3-(3-(3-(((1R,2S,5R)-5-(Isopropyl(methyl)amino)-2-((S)-2-oxo-3-((6-(trifluoromethyl)quinazolin-4-yl)amino)pyrrolidin-1-yl)cyclohexyl)amino)-3-oxopropoxy)propanamido)cyclobutane-1-carboxamido)ethoxy)ethyl)-1-methyl-5-oxo-2-(pyridin-3-yl)pyrrolidine-3-carboxamide] are 31.8 µM, 55.2% and 9.1435.
`CC(C)N(C)[C@@H]1CC[C@H](N2CC[C@H](Nc3ncnc4ccc(C(F)(F)F)cc34)C2=O)[C@H](NC(=O)CCOCCC(=O)N[C@H]2C[C@H](C(=O)NCCOCCNC(=O)[C@H]3CC(=O)N(C)[C@@H]3c3cccnc3)C2)C1` [Example 187]: in test [1], half-maximal inhibition (IC50) required 71.1 µM and the Emax at 100 µM was determined as 63.7%. For the same compound, the “pKd of Antibody” value in test [2] is recorded as 9.104.
For the compound `CC(C)N(C)[C@@H]1CC[C@H](N2CC[C@H](Nc3ncnc4ccc(C(F)(F)F)cc34)C2=O)[C@H](NC(=O)CCCN2CCC3(CCN(CCCNC(=O)[C@H]4CC(=O)N(C)[C@@H]4c4cccnc4)CC3)CC2)C1` [Example 191, (2S,3S)-N-(3-(9-(4-(((1R,2S,5R)-5-(Isopropyl(methyl)amino)-2-((S)-2-oxo-3-((6-(trifluoromethyl)quinazolin-4-yl)amino)pyrrolidin-1-yl)cyclohexyl)amino)-4-oxobutyl)-3,9-diazaspiro[5.5]undecan-3-yl)propyl)-1-methyl-5-oxo-2-(pyridin-3-yl)pyrrolidine-3-carboxamide], in test [1], inhibition was half-maximal at 2.95 µM (IC50) and the Emax at 10 µM was found to be 74%. Moreover, the “pKd of Antibody” value in test [2] was 9.68.
